# Test results taken from PubChem BioAssay AID463206 (Broad Institute, 2010).
# Calls of active or inactive are those of the source.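 How the source made its calls: active means caspase luminescence falls with dose and the half-maximal concentration AC50 from the fitted curve is at or below a set limit; inconclusive means flat fit at 30 to 70% signal loss, or invalid fit; inactive means AC50 above the limit, or signal rises instead.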
# Test system: INS-1E cytokine-induced caspase-3/7, Caspase-Glo luminescence, 48 h
# Assay: inhibitors of cytokine-induced caspase-3/7 activity, dose response, orthogonal assay for beta-cell apoptosis protection project, INS-1E rat cells, luminescence (AID 463206)
row,SMILES,AC50
1,CC(C)C[C@H]1CN=C(Nc2ccccc2)N1CCc1ccc(F)cc1,> 12 µM (inactive)
2,C/C(N)=C(/C#N)C(=O)COC(=O)c1cc(-c2ccc(C)cc2)nc2ccccc12,> 26 µM (inactive)
3,CN1/C(=C\C(=O)C[n+]2cccc(Br)c2)C(C)(C)c2ccccc21,> 26 µM (inactive)
4,O=C(Nc1ccc(N2CCN(Cc3ccccc3Cl)CC2)cc1)c1cccnc1,> 26 µM (inactive)
5,CCCOc1ccc(Br)cc1CSC(=N)N,> 12 µM (inactive)
6,CCCOC(=O)/C(C(N)=NCc1ccccc1)=C(\O)OCCC,> 26 µM (inactive)
7,CCOc1ccccc1NC(=O)c1nc(S(=O)(=O)Cc2cccc(C)c2)ncc1Cl,> 26 µM (inactive)
8,COc1ccc(CNCCc2c(C)[nH]c3ccc(OC(F)(F)F)cc23)c(OC)c1,> 26 µM (inactive)
9,COc1ccc(NS(=O)(=O)c2ccc(-c3coc(C)n3)cc2)cc1OC,> 26 µM (inactive)
10,CCC(C)(C)c1ccc(OCCCC[n+]2ccc(C)cc2)c(C(C)(C)CC)c1,> 26 µM (inactive)
11,COc1cc2c(cc1OC)C(NC(=O)C(F)(F)F)CNC2=O (stereo not drawn),> 26 µM (inactive)
12,c1ccc(-c2csc3ncnc(NCC4COc5ccccc5O4)c23)cc1 (stereo not drawn),> 26 µM (inactive)
13,C#CC[N+](C)(C)CCCCCCCCCCCC,> 26 µM (inactive)
14,Cc1cc(C(=O)N/N=C/c2cc(Br)cc(Br)c2OC(=O)c2cccc(F)c2)n[nH]1,> 26 µM (inactive)
15,CCN(CC)C(=O)C1CCCN(C(=S)Nc2cccc3ccccc23)C1 (stereo not drawn),> 26 µM (inactive)
16,O=C(N/N=C/c1cc([N+](=O)[O-])ccc1O)c1cccc2ccccc12,> 26 µM (inactive)
17,COc1ccc(Nc2nc(N3CCCC3)c3ccccc3n2)cc1,17.1 µM
18,O=C(Cc1ccc([N+](=O)[O-])cc1)Nc1cccnc1,> 26 µM (inactive)
19,Cc1cc(C)c2sc(NNC(=O)c3ccc(S(=O)(=O)N4CCc5ccccc5C4)cc3)nc2c1,> 26 µM (inactive)
20,COC(=O)c1cc(O)cc(OC)c1Oc1cc(C)cc(O)c1C(=O)O,3.06 µM
21,O=C(Nc1cccc(Cl)c1)Nc1nnc(CSCCOc2ccc(Cl)cc2)s1,> 26 µM (inactive)
22,O=C(Nc1ccc(-c2nc3ccccc3o2)cc1)c1ccc(N2CCOCC2)c([N+](=O)[O-])c1,> 26 µM (inactive)
23,c1ccc2c3c([nH]c2c1)C1(CCNCC1)NCC3,> 26 µM (inactive)
24,CC1(C)C[C@@H]2C[C@@](C)(CN2C(=O)c2cc(COc3cccc(C(F)(F)F)c3)on2)C1,> 12 µM (inactive)

row,SMILES,AC50
1,Cc1ccc(-c2nn(-c3ccccc3)cc2/C=N/NC(=O)c2ccc(Br)o2)cc1,> 26 µM (inactive)
2,Nc1nonc1-n1nnc(C(=O)N/N=C/c2ccccc2O)c1CN1CCCC1,> 26 µM (inactive)
3,NS(=O)(=O)c1ccc(N/N=C/c2cn(-c3ccccc3)nc2-c2cccs2)c([N+](=O)[O-])c1,19 µM
4,Cc1ccc(NC(=O)c2c(-c3c(F)cccc3Cl)noc2C)cc1F,> 12 µM (inactive)
5,Cn1cccc1C1C=C(c2ccc(C(C)(C)C)cc2)Nc2ncnn21 (stereo not drawn),> 26 µM (inactive)
6,CC1CCC(C(C)C)C(OC(=O)Cn2c(-c3ccc(F)cc3)[n+](C)c3ccccc32)C1 (stereo not drawn),> 26 µM (inactive)
7,O=C(COC(=O)c1cn(-c2ccccc2)nc1-c1ccccc1)c1cccc([N+](=O)[O-])c1,> 26 µM (inactive)
8,Fc1ccc2nc(Nc3nc4c(F)cc(F)cc4s3)sc2c1,> 26 µM (inactive)
9,CC(C)N=c1cc2n(-c3ccc(Cl)cc3)c3ccccc3nc-2cc1Nc1ccc(Cl)cc1,> 26 µM (inactive)
10,CCCCCCCCNC(C)C(O)c1ccc(SC(C)C)cc1 (stereo not drawn),> 26 µM (inactive)
11,O=C(C(Cl)Cl)N1c2ccccc2OCC1c1ccccc1 (stereo not drawn),> 26 µM (inactive)
12,COc1cc(CSc2nnnn2-c2ccc(C)cc2)cc(OC)c1OC,> 26 µM (inactive)
13,CCc1ccc(S(=O)(=O)/N=C2\C=C(Nc3ccc(C(=O)O)cc3)C(=O)c3ccccc32)cc1,> 26 µM (inactive)
14,Cc1ccc(S(=O)(=O)/N=C2\C(=O)c3ccccc3C([O-])=C2n2cc[n+](CCC(C)C)c2)cc1,> 26 µM (inactive)
15,O=c1c2ccccc2nc(COc2ccccc2)n1/N=C/c1cc([N+](=O)[O-])ccc1O,> 26 µM (inactive)
16,N/C(=N\OC(=O)c1cccc(Cn2cc(C(F)(F)F)ccc2=O)c1)c1ccccc1,> 26 µM (inactive)
17,CCc1cc[n+](C2=C([O-])c3ccccc3C(=O)/C2=N\S(=O)(=O)c2cccs2)cc1,> 26 µM (inactive)
18,O=C(N/N=C\c1cc(Br)ccc1O)c1ccc(S(=O)(=O)N2CCCCC2)cc1,> 26 µM (inactive)
19,CCC(=O)NC(c1ccc(C)cc1)c1cc([N+](=O)[O-])c2cccnc2c1O (stereo not drawn),> 26 µM (inactive)
20,CCCC1(c2ccccc2)NC(=O)N(CC(=O)Nc2cc(C)ccc2OC)C1=O (stereo not drawn),> 26 µM (inactive)
21,CC(C)C[C@H](NC(=O)c1nc[nH]c1C(=O)N[C@@H](CC(C)C)C(=O)OC(C)(C)C)C(=O)OCc1ccccc1,> 26 µM (inactive)
22,Cc1cc(N/N=C/c2ccc(O)cc2O)nc(-c2ccccc2O)n1,> 26 µM (inactive)
23,COC(=O)C1=C(C)N(Cc2ccccc2)C(=NCc2cccc(Cl)c2)N[C@H]1c1cccc(F)c1,> 26 µM (inactive)
24,C/C(=N/NC(=O)CN(c1ccccc1)S(=O)(=O)c1ccccc1)c1ccccc1O,> 26 µM (inactive)
